We go through ten molecules from PMC11990103, “Anticancer Activity and Safety Profile of Novel 1-(4-Fluorophenoxyacetyl)-4-substituted Thio/Semicarbazide Derivatives” (Molecules, 2025).

The subject of one data set is zebrafish embryos. Details: method as in PMID 36436567. As to conditions: cited from earlier work.
In data set [1] the test system is MCF-7 breast cancer cell line. Briefly: MTT cytotoxicity assay. In kind it is cell-based, human. As to conditions: 48 h treatment. The protocol: (§1) These cancer cell lines comprised prostate cancer (PC-3, DU-145, LNCaP), melanoma (SK-MEL28, A375, G-361), breast cancer (MCF-7, MDA-MB-231), and lung cancer (NCI-H1563). The MTT assay was carried out across a wide range of concentrations for 48 h.
(§2) The research was conducted on one primary cell line: BJ (fibroblast) and four types of cancerous ones: three prostate cancer cell lines (PC-3, DU-145, LNCaP); 3 Melanoma cell lines (MEL-28, A375, G-361); 2 breast cancer cell lines (MCF-7, MDA-MB-23) and one lung cancer cell line (NCI-H1563). All cell lines were obtained from the American Type Culture Collection (ATCC, Manassas, VA, USA) and were grown in media (Corning, New York, NY, USA) according to ATCC guidelines. The culture media was enriched with 10% heat-inactivated fetal bovine serum (Life Technologies, Carlsbad, CA, USA) and antibiotics: penicillin (100 units) and streptomycin (100 μg/mL) from Sigma-Aldrich (St. Louis, MO, USA). The cells were incubated at 37 °C with 5% CO2 in air.
(§3) The cytotoxic analysis of thiosemicarbazides (TSC) (AB1–AB6) and semicarbazides (SC) (AB7–AB12) was conducted in various concentrations. […] The cells were treated with compounds or DMSO as a vehicle in control cultures for 48h. IC50 values were determined using the AAT Bioquest IC50 calculator (AAT Bioquest, Inc., Pleasanton, CA, USA, Quest Graph™ EC50 Calculator. https://www.aatbio.com/tools/ec50-calculator) (accessed on 7 October 2024).
(§4) The cytotoxic activity of the thiosemicarbazides and semicarbazides was measured using the MTT colorimetric assay (MTT Cell Proliferation Assay Kit—Invitrogen, Waltham, MA, USA). The cells were seeded in the 96-well plates at a density of 1.5 × 10^5 cells/mL. After reaching 70–80% of confluence, the tested compounds in a wide range of concentrations were added. Plates were incubated for 48 h at 37 °C in 5% CO2 air. Then, […] tetrazolium salt (3-(4,5-dimethylthiazol-2-yl)-2,5-diphenyltetrazolium bromide)—MTT reagent (0.5 mg/mL) dissolved in PBS was added to each well for 4 h. The MTT solution was then removed from above the water-insoluble purple formazan crystals, which were then dissolved in DMSO (dimethyl sulfoxide, […]; POCH, Gliwice, Poland). The absorbance value of obtained solutions was measured using a PowerWave ™ microplate spectrophotometer (Bio-Tek Instruments, Winooski, VT, USA) at a wavelength of 570 nm. Each cytotoxicity assay was repeated three times in triplicates.
On the technique in general: Formazan colour is commonly taken as a measure of viable cells.

Data set [2] concerns MDA-MB-231 breast cancer cell line. Briefly: MTT cytotoxicity assay. In kind it is cell-based, human. As to conditions: 48 h treatment. The protocol:
as §1, §2, §3, §4

For data set [3], the system named is DU-145 prostate cancer cell line. Briefly: MTT cytotoxicity assay. As to conditions: 48 h treatment. In kind it is cell-based, human. The protocol:
as §1, §2, §3, §4

For a further data set, the system named is A375 melanoma cell line. Briefly: MTT cytotoxicity assay. In kind it is cell-based, human. As to conditions: 48 h treatment. The protocol:
as §1, §2, §3, §4

Data set [4] deals with NCI-H1563 lung cancer cell line. Briefly: MTT cytotoxicity assay. In kind it is cell-based, human. As to conditions: 48 h treatment. The procedure:
as §1, §2, §3, §4

In data set [5] the test system is LNCaP prostate cancer cell line. Briefly: MTT cytotoxicity assay. In kind it is cell-based, human. As to conditions: MTT, 48 h treatment. The protocol: as §1, §2, §3, §4
The test system of data set [6] is PC-3 prostate cancer cell line. Briefly: MTT cytotoxicity assay. In kind it is cell-based, human. As to conditions: 48 h treatment. The protocol: as §1, §2, §3, §4
In the next data set the test system is G-361 melanoma cell line. Briefly: MTT cytotoxicity assay. As to conditions: MTT, 48 h treatment. In kind it is cell-based, human. The procedure:
as §1, §2, §3, §4

Data set [7] deals with SK-MEL28 melanoma cell line. Briefly: MTT cytotoxicity assay. In kind it is cell-based, human. As to conditions: 48 h treatment. The procedure:
as §1, §2, §3, §4

A further data set concerns BJ fibroblasts. Briefly: MTT cytotoxicity assay, normal cells. As to conditions: 48 h treatment, read-out: IC50 BJ (fibroblast). In kind it is cell-based, human. The protocol:
as §1, §2, §3, §4

Data set [8] relates to tested cancer cell lines (PC-3, DU-145, LNCaP, SK-MEL28, A375, G-361, MCF-7, MDA-MB-231, NCI-H1563). Briefly: MTT cytotoxicity assay, panel of nine cancer cell lines as a whole. In kind it is cell-based, human. The procedure: as §1
The research was conducted on one primary cell line: BJ (fibroblast) and four types of cancerous ones: three prostate cancer cell lines (PC-3, DU-145, LNCaP); 3 Melanoma cell lines (MEL-28, A375, G-361); 2 breast cancer cell lines (MCF-7, MDA-MB-23) and one lung cancer cell line (NCI-H1563). […]
The cytotoxic analysis of thiosemicarbazides (TSC) (AB1–AB6) and semicarbazides (SC) (AB7–AB12) was conducted in various concentrations. […] IC50 values were determined using the AAT Bioquest IC50 calculator (AAT Bioquest, Inc., Pleasanton, CA, USA, Quest Graph™ EC50 Calculator. https://www.aatbio.com/tools/ec50-calculator) (accessed on 7 October 2024).
The cytotoxic activity of the thiosemicarbazides and semicarbazides was measured using the MTT colorimetric assay (MTT Cell Proliferation Assay Kit—Invitrogen, Waltham, MA, USA). […] The absorbance value of obtained solutions was measured using a PowerWave ™ microplate spectrophotometer (Bio-Tek Instruments, Winooski, VT, USA) at a wavelength of 570 nm. […]

The subject of a further data set is G-361 melanoma cells. More on the design: method as in PMID 35204651. As to conditions: cited from earlier work.
Details of data set [9]: method as in PMID 14912098. As to conditions: as toxic as thiosemicarbazide; cited from earlier work.

On to `CCNC(=O)NNC(=O)c1ccc([N+](=O)[O-])cc1` [1-(4-nitrobenzoyl)-4-ethylsemicarbazide], for which the “morphological abnormalities, including cardiotoxicity” value with zebrafish embryos is “do not cause morphological abnormalities, including cardiotoxicity”.

For `CCCCCCNC(=O)NNC(=O)Cc1ccc([N+](=O)[O-])cc1` [1-[(4-nitrophenyl)acetyl]-4-hexylsemicarbazide], the “morphological abnormalities, including cardiotoxicity” value with zebrafish embryos is on record as “do not cause morphological abnormalities, including cardiotoxicity”.

The term IC50 denotes the concentration needed to halve the response being measured. Turning to `O=C(COc1ccc(F)cc1)NNC(=S)Nc1ccccc1` [AB1], the IC50 in data set [1] was above 500 µM; in [2], above 500 µM; in [3], above 500 µM; with A375 melanoma cell line, above 500 µM; in data set [4], above 500 µM; in [5], 252 µM. The half-inhibitory concentration (IC50) in [6] is above 500 µM; in the data set with G-361 melanoma cell line, 369 µM; in [7], above 500 µM; in the data set with BJ fibroblasts, 498 µM; in [8] (MTT, 48 h, thiosemicarbazides tested 500 to 100 μM, semicarbazides 100 μM to 1 μM, read-out: IC50 in the tested cancer cell lines (stated for the panel)), above 500 µM.

In the case of `O=C(COc1ccc(F)cc1)NNC(=S)Nc1cccc(Cl)c1` [AB3], the IC50 was determined as 456 µM in data set [1]; 495 µM in data set [2]; 268 µM in data set [3]; 400 µM in the data set with A375 melanoma cell line; 437 µM in data set [4]; 175 µM in data set [5]. For the same molecule, the IC50 is 467 µM in data set [6], 248 µM in the data set on G-361 melanoma cell line, 302 µM in data set [7] and 422 µM in the data set with BJ fibroblasts.

For `O=C(COc1ccc(F)cc1)NNC(=S)Nc1ccc(Cl)cc1` [AB4], the half-maximal inhibitory concentration (IC50) in [1] is 343 µM; in [2], 421 µM; in data set [3], 297 µM; in the data set on A375 melanoma cell line, 399 µM; in [4] it was 293 µM; in data set [5], 257 µM. Also, the IC50 in data set [6] was determined as 355 µM; in the data set on G-361 melanoma cell line it was 265 µM; in data set [7] it was 322 µM; with BJ fibroblasts, 313 µM.

On to `O=C(COc1ccc(F)cc1)NNC(=S)Nc1ccc(Cl)cc1Cl` [AB5], for which the concentration for half-maximal inhibition (IC50) in data set [1] was found to be 421 µM; in data set [2], 445 µM; in data set [3] it was 401 µM; in the data set with A375 melanoma cell line it was 384 µM; in data set [4] it was 372 µM; in [5], 154 µM. Besides, the half-inhibitory concentration (IC50) was 395 µM in data set [6], 276 µM with G-361 melanoma cell line, 297 µM in data set [7] and 303 µM in the data set with BJ fibroblasts.

For `O=C(COc1ccc(F)cc1)NNC(=S)Nc1ccc(Cl)c(Cl)c1` [AB6], the IC50 turned out to be 240 µM in data set [1]; 334 µM in [2]; 343 µM in data set [3]; 257 µM with A375 melanoma cell line; 242 µM in data set [4]; 121 µM in [5]. The concentration for half-maximal inhibition (IC50) in [6] was 388 µM; with G-361 melanoma cell line, 210 µM; in data set [7] it was 195 µM; in the data set with BJ fibroblasts, below 100 µM. For the same molecule, the “selectivity index (SI)” value in data set [8] (IC50 normal cells (BJ) divided by IC50 cancer cells, cell line not specified) is recorded as below 1.

Consider `N.N.[Cl][Pt][Cl]` [Cisplatin, reference compound], for which the concentration for half-maximal inhibition (IC50) is 22.6 µM in [1]; 38.7 µM in [2]; 64.1 µM in [3]; 18.2 µM in the data set on A375 melanoma cell line; 2.78 µM in [4]; 31.5 µM in data set [5]. In addition, the IC50 in data set [6] worked out at 52.2 µM; in the data set with G-361 melanoma cell line, 12.5 µM; in data set [7], 25.8 µM.

For the molecule `CSc1ccc(NC(=S)NNC(=O)COc2ccc(Cl)cc2Cl)cc1` [PK2], the “population of cells in the sub-G1 phase” value in the data set on G-361 melanoma cells is on record as “increase”.

Take `NNC(N)=O` [semicarbazide]: in data set [9], the “toxicity relative to thiosemicarbazide” value is listed as “about 1/20”.
